# Patent US20230203175A1, “Anti-CD40 Antibody Combination Treatment for Cancer” (SEAGEN INC., priority 2020, published 2023)
# Tests used:
# murine CD40 = murine CD40 (Mus musculus, UniProt P27512); assay: Recognition of murine CD40; assay type: binding
# cytokines (IFN-γ, IL-10) = assay: Cytokine production after administration to a patient; assay type: in vivo; details: when administered to a patient
# FcγIII receptors = details: as described in US20170333556A1; cited from earlier work
# CD40 signaling pathway = details: as described in US20170333556A1; cited from earlier work
# Sequence of murine CD40 (P27512 20-289): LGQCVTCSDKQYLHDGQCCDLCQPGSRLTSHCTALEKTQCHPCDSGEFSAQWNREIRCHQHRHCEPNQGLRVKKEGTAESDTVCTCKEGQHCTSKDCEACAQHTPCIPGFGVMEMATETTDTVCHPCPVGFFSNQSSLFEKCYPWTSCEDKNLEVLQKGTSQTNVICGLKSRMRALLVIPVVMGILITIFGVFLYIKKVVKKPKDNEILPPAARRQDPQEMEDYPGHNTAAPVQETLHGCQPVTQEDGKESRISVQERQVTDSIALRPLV
substance,measurement,setting,value
SEA-CD40: non-fucosylated humanized IgG1 anti-CD40 monoclonal antibody; heavy and light chains SEQ ID NOs: 1 and 2,recognition of murine CD40,murine CD40,does not recognize murine CD40
same,"production of cytokines, including interferon-γ (IFN-γ)","cytokines (IFN-γ, IL-10)",induce production of cytokines
same,"production of immune-dampening cytokines, such as interleukin-10 (IL-10)","cytokines (IFN-γ, IL-10)",does not induce production
same,binding to FcγIII receptors,FcγIII receptors,enhanced binding
same,ability to activate the CD40 signaling pathway in immune cells,CD40 signaling pathway,enhanced ability
